Test results reported in publication PMC9323911, “Comparative Metabolomics Study of the Impact of Articaine and Lidocaine on the Metabolism of SH-SY5Y Neuronal Cells” (Metabolites, 2022).
Entries after “also recorded” stand apart in the source; their conditions may differ. Counter-ions that a name gives are not always drawn.

What was measured:
SH-SY5Y cells [1] = test: 1H NMR metabolic profiling of cell lipid extracts; format: cell-based, human; conditions: lipid extract, vs control
Description: After reaching semiconfluence, 10 mL of cells (1 × 10^6 cells/mL) were plated on 90 mm diameter culture dishes and incubated for 24 h. […] Afterward, the medium was collected and the dishes washed with cold PBS, immediately before the solvent extraction procedure described below. Unexposed cells were used as controls. Each assay comprised duplicates of each condition and three independent assays were performed, giving a total of 6 replicates per condition.
The culture medium was collected from each plate (including cell-free medium incubated under the same conditions) in conical tubes and centrifuged at 1000× g for 10 min. Furthermore, 300 µL of the supernatant were collected for protein precipitation, as described by Kostidis et al.. Briefly, 600 µL of 100% methanol (v/v) at −80 °C were added to the collected supernatant ([…]). The mixture was kept at −20 °C for 30 min and centrifuged at 13,000× g for 20 min. The supernatant was transferred to another tube and vacuum dried (SpeedVac, Eppendorf, Hamburg, Germany). For extracting cellular metabolites, a biphasic extraction protocol (methanol:chloroform:water; 1:1:0.7) was used as previously described. The resulting polar extracts were dried under vacuum in a Speedvac concentrator, and the lipophilic extracts were dried under a nitrogen flow. All extracts were stored at −80 °C prior to NMR analysis.
For NMR analysis, dried aqueous and lipid extracts were dissolved, respectively, in 600 μL of deuterated phosphate buffer (PBS 100 mM, pH 7.4) containing 0.1 mM 3-(trimethylsilyl) propionic acid (TSP-d4), and 600 μL of deuterated chloroform containing 0.03% tetramethylsilane (TMS). After transferring 550 μL of each sample to 5 mm NMR tubes, analysis was performed on a Bruker Avance III HD 500 NMR spectrometer (University of Aveiro, Portuguese NMR Network) operating at 500.13 MHz for ^1H observation, at 298 K. Standard 1D ^1H spectra (pulse programs ‘noesypr1d’ and ‘zg’ for aqueous and lipid samples, respectively) were recorded with 32 k points, 7002.80 Hz spectral width, a 2 s relaxation delay and 512 scans. […]. Two-dimensional NMR spectra, namely, ^1H-^1H TOCSY, J-resolved and ^1H-^13C HSQC spectra, were also recorded for selected samples to aid metabolite identification. Signal assignment was based on matching 1D and 2D spectral information to reference spectra available in Chenomx 9.0 (Edmonton, AB, Canada), BBIOREFCODE-2–0–0 (Bruker Biospin, Rheinstetten, Germany) and HMDB.
To provide a quantitative measurement of metabolic variations, spectral integration and total area normalization of selected signals (vide Supplementary Table S1) were carried out in Amix-Viewer 3.9.15 (Bruker Biospin, Rheinstetten, Germany). For each metabolite, the percentage of variation (or fold change) in exposed samples was calculated relative to respective controls, along with the effect size (ES) and statistical significance (p-value). The variations with larger magnitude (|ES| > 0.8) were expressed in a heatmap. Loadings profiles and heatmap figures were generated using the R software version 4.1.3 (R Core Team (2020). R: A language and environment for statistical computing. R Foundation for Statistical Computing, Vienna, Austria. URL http://www.R-project.org/ accessed 23 May 2022).

[2] = set-up: method as in PMID 31172838; conditions: ATC vs LDC; cited from earlier work
[3] = set-up: method as in PMID 31172838; conditions: neutral species; cited from earlier work
[4] = cited from earlier work
SH-SY5Y cells [5] = conditions: cited from earlier work
[6] = system: neuronal cells of a different lineage (SHEP); conditions: 24 h; cited from earlier work

| SMILES | phosphatidylcholine (PtC) level (SH-SY5Y cells [1]; 24 h) | triglycerides level (SH-SY5Y cells [1]; IC50, 24 h) | cholesterol level (SH-SY5Y cells [1]; IC50, 24 h) | cholesteryl esters level (SH-SY5Y cells [1]; IC50, 24 h) | phospholipids level (SH-SY5Y cells [1]; IC50, 24 h) | fold lower egg phosphatidylcholine/aqueous buffer partition coefficient (P) than LDC [2] [×] | Aqueous solubility [3] [mM] | Plasma half-life [4] [min] | effect on cells at very short exposure (SH-SY5Y cells [5]; 5 min exposure) | LD50 (SH-SY5Y cells [5]; 20 min incubation of SH-SY5Y cells) [mM] | LD50 [6] [mM] |
| --- | --- | --- | --- | --- | --- | --- | --- | --- | --- | --- | --- |
| CCN(CC)CC(=O)Nc1c(C)cccc1C [LDC, lidocaine hydrochloride] | decrease | accumulated; also recorded: increased |  |  |  |  |  |  |  |  |  |
| CCCNC(C)C(=O)Nc1c(C)csc1C(=O)OC (stereo not drawn) [ATC, Articaine hydrochloride] |  | decreases | significant decrease | prominent increase; also recorded: increased | decreases | 10 | 62.1 | 20 | no effect | 9.0 | 13.4 |
